Test results published in US20240124417A1, “COMPOUNDS USEFUL AS IMMUNOMODULATORS” (Bristol-Myers Squibb Company, priority 2019, published 2024).

Target: T1, PD-1/PD-L1 (Homo sapiens, UniProt Q9NZQ7)
T1 construct: TVMV protease site linker (C); made in house; host or cells: HEK293T cells
Test: PD-1/PD-L1 Homogenous Time-Resolved Fluorescence (HTRF) binding assay
Settings: PD-L1-His 10 nM, PD-1-Ig 20 nM
In short: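 Time-resolved FRET read-out using Eu-cryptate anti-Ig (1 nM final) and APC anti-His (20 nM final). Tagged extracellular domains were used in BSA/Tween-20-supplemented dPBS, with compound pre-incubated 15 min with PD-L1-His (10 nM) before PD-1-Ig (20 nM) was added for 15 min. Other human pairs: PD-L2-His 5 nM with PD-1-Ig 20 nM; PD-L1-Ig 10 nM with CD80-His 100 nM.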

T1 sequence (Q9NZQ7 18-239): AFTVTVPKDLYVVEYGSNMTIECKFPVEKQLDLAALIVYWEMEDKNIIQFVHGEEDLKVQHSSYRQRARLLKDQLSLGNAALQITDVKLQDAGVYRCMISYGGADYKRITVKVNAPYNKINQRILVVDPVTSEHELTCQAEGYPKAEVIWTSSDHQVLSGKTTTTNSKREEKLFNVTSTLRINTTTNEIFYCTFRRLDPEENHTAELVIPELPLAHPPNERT

Structure (SMILES) | IC50 [nM]
Cc1c(COc2cc(OCc3cncc(C#N)c3)c(CN(C)C(C)c3nnn[nH]3)cc2Cl)cccc1-c1cccc(OCCCN2CC[C@@H](O)C2)c1C (stereo partly drawn) [Example 1005, 5-((2-(((1-(1H-Tetrazol-5-yl)ethyl)(methyl)amino)methyl)-4-chloro-5-((3′-(3-((R)-3-hydroxypyrrolidin-1-yl)propoxy)-2,2′-dimethyl-[1,1′-biphenyl]-3-yl)methoxy)phenoxy)methyl)nicotinonitrile] | 2.3
CC(=O)NC1CCN(CCCOc2cccc(-c3cccc(COc4cc(OCc5cncc(C#N)c5)c(CN5CCC(c6nnn[nH]6)C5)cc4Cl)c3C)c2Cl)CC1 (stereo not drawn) [Example 1058, N-(1-(3-((3′-((4-((3-(1H-Tetrazol-5-yl)pyrrolidin-1-yl)methyl)-2-chloro-5-((5-cyano-pyridin-3-yl)methoxy)phenoxy)methyl)-2-chloro-2′-methyl-[1,1′-biphenyl]-3-yl)oxy)-propyl)piperidin-4-yl)acetamide] | 1.9
CC(=O)NC1CCN(CCCOc2cccc(-c3cccc(COc4cc(OCc5cncc(C#N)c5)c(CN5CCCC(c6nnn[nH]6)C5)cc4Cl)c3C)c2C)CC1 (stereo not drawn) [Example 1041, N-(1-(3-((3′-((4-((3-(1H-Tetrazol-5-yl)piperidin-1-yl)methyl)-2-chloro-5-((5-cyano-pyridin-3-yl)methoxy)phenoxy)methyl)-2,2′-dimethyl-[1,1′-biphenyl]-3-yl)oxy)propyl)-piperidin-4-yl)acetamide] | 0.5
CC(=O)NC1CCN(CCCOc2cccc(-c3cccc(COc4cc(OCc5cncc(C#N)c5)c(CN(C)CCc5nn[nH]n5)cc4Cl)c3C)c2C)CC1 [Example 1037, N-(1-(3-((3′-((4-(((2-(2H-Tetrazol-5-yl)ethyl)(methyl)amino)methyl)-2-chloro-5-((5-cyanopyridin-3-yl)methoxy)phenoxy)methyl)-2,2′-dimethyl-[1,1′-biphenyl]-3-yl)oxy)-propyl)piperidin-4-yl)acetamide] | 2.8
Cc1c(COc2cc(OCc3cncc(C#N)c3)c(CNCc3cncs3)cc2Cl)cccc1-c1cccc(OCCCN2CC[C@@H](O)C2)c1C [Example 2531, (R)-5-((4-chloro-5-((3′-(3-(3-hydroxypyrrolidin-1-yl)propoxy)-2,2′-dimethyl-[1,1′-biphenyl]-3-yl)methoxy)-2-(((thiazol-5-ylmethyl)amino)methyl)phenoxy)methyl)nicotinonitrile] | 3.4
Cc1c(COc2cc(OCc3cncc(C#N)c3)c(CN3CCCC(c4nnn[nH]4)C3)cc2Cl)cccc1-c1cccc(OCCCN2CC[C@@H](O)C2)c1C (stereo partly drawn) [Example 1018, 5-((2-((3-(1H-Tetrazol-5-yl)piperidin-1-yl)methyl)-4-chloro-5-((3′-(3-((R)-3-hydroxy-pyrrolidin-1-yl)propoxy)-2,2′-dimethyl-[1,1′-biphenyl]-3-yl)methoxy)phenoxy)methyl)-nicotinonitrile] | 0.5
Cc1c(COc2cc(OCc3cncc(C#N)c3)c(CN(C)Cc3nc4ccccc4n3Cc3ccccc3)cc2Cl)cccc1-c1cccc(OCCCN2CC[C@@H](O)C2)c1C [Example 2561, (R)-5-((2-((((1-benzyl-1H-benzo[d]imidazol-2-yl)methyl)(methyl)amino)methyl)-4-chloro-5-((3′-(3-(3-hydroxypyrrolidin-1-yl)propoxy)-2,2′-dimethyl-[1,1′-biphenyl]-3-yl)methoxy)phenoxy)methyl)nicotinonitrile] | 746
Cc1c(COc2cc(OCc3cncc(C#N)c3)c(CN3CCCCC3c3cnn(C)c3)cc2Cl)cccc1-c1cccc(OCC2CCCN(C)C2)c1Cl (stereo not drawn) [Example 1022, 5-((4-Chloro-5-((2′-chloro-2-methyl-3′-((1-methylpiperidin-3-yl)methoxy)-[1,1′-biphenyl]-3-yl)methoxy)-2-((2-(1-methyl-1H-pyrazol-4-yl)piperidin-1-yl)methyl)phenoxy)-methyl)nicotinonitrile] | 1.3

More lines, in order of falling IC50, values ahead:

IC50 [nM] | Structure (SMILES)
8.2 | Cc1c(COc2cc(OCc3cncc(C#N)c3)c(CNCc3ccnc(C#N)n3)cc2Cl)cccc1-c1cccc(OCCCN2CC[C@@H](O)C2)c1C [Example 2040, (R)-4-(((5-chloro-2-((5-cyanopyridin-3-yl)methoxy)-4-((3′-(3-(3-hydroxypyrrolidin-1-yl)propoxy)-2,2′-dimethyl-[1,1′-biphenyl]-3-yl)methoxy)benzyl)amino)methyl)pyrimidine-2-carbonitrile]
3.5 | Cc1c(COc2cc(OCc3cncc(C#N)c3)c(CNCc3cnc[nH]3)cc2Cl)cccc1-c1cccc(OC2CCN(C)CC2)c1Cl [Example 2047, 5-((2-((((1H-imidazol-5-yl)methyl)amino)methyl)-4-chloro-5-((2′-chloro-2-methyl-3′-((1-methylpiperidin-4-yl)oxy)-[1,1′-biphenyl]-3-yl)methoxy)phenoxy)methyl)nicotinonitrile]
3 | [2H]C([2H])([2H])C(NCc1cc(Cl)c(OCc2cccc(-c3cccc(OCC4CCCN(C)C4)c3Cl)c2C)cc1OCc1cncc(C#N)c1)(c1ncon1)C([2H])([2H])[2H] (stereo not drawn) [Example 2624, 5-((2-(((2-(1,2,4-oxadiazol-3-yl)propan-2-yl-1,1,1,3,3,3-d6)amino)methyl)-4-chloro-5-((2′-chloro-2-methyl-3′-((1-methylpiperidin-3-yl)methoxy)-[1,1′-biphenyl]-3-yl)methoxy)phenoxy)methyl)nicotinonitrile]
2.1 | Cc1c(COc2cc(OCc3cncc(C#N)c3)c(CNCc3ncn[nH]3)cc2Cl)cccc1-c1cccc(OCCCN2CCC(O)(CO)CC2)c1Cl [Example 2009, 5-((2-((((1H-1,2,4-triazol-5-yl)methyl)amino)methyl)-4-chloro-5-((2′-chloro-3′-(3-(4-hydroxy-4-(hydroxymethyl)piperidin-1-yl)propoxy)-2-methyl-[1,1′-biphenyl]-3-yl)methoxy)phenoxy)methyl)nicotinonitrile]
1.9 | Cc1c(COc2cc(OCc3cncc(C#N)c3)c(CN(C)Cc3nnn[nH]3)cc2Cl)cccc1-c1cccc(OCCCN2CC[C@@H](O)C2)c1C [Example 1016, (R)-5-((2-((((1H-Tetrazol-5-yl)methyl)(methyl)amino)methyl)-4-chloro-5-((3′-(3-(3-hydroxypyrrolidin-1-yl)propoxy)-2,2′-dimethyl-[1,1′-biphenyl]-3-yl)methoxy)phenoxy)-methyl)nicotinonitrile]
1.4 | Cc1c(COc2cc(OCc3cncc(C#N)c3)c(CN3CCCC(c4ncc[nH]4)C3)cc2Cl)cccc1-c1cccc(OCCCN2CC[C@@H](O)C2)c1C (stereo partly drawn) [Example 1003, 5-((2-((3-(1H-Imidazol-2-yl)piperidin-1-yl)methyl)-4-chloro-5-((3′-(3-((R)-3-hydroxy-pyrrolidin-1-yl)propoxy)-2,2′-dimethyl-[1,1′-biphenyl]-3-yl)methoxy)phenoxy)methyl)-nicotinonitrile]
0.2 | CC(=O)NC1CCN(CCCOc2cccc(-c3cccc(COc4cc(OCc5cncc(C#N)c5)c(CN5CCC(c6nnn[nH]6)C5)cc4Cl)c3C)c2C)CC1 (stereo not drawn) [Example 1042, N-(1-(3-((3′-((4-((3-(1H-Tetrazol-5-yl)pyrrolidin-1-yl)methyl)-2-chloro-5-((5-cyano-pyridin-3-yl)methoxy)phenoxy)methyl)-2,2′-dimethyl-[1,1′-biphenyl]-3-yl)oxy)propyl)-piperidin-4-yl)acetamide]
